Data set [1] has as its system transgenic APPIn mice (London mutant human APP). The data set can be described thus: Morris water maze test in transgenic APPIn mice. Conditions: icv 0.015 mg/kg/day, 28 days, p<0.005. It is filed as in vivo, mouse. The method, then:
(§1) Transgenic mice expressing human APP containing the London mutation (APPIn) mimic AD function and pathology in that they are cognitively deficient, have brain amyloid plaque and elevated Aβ (8). […] CA074Me or E64d were administered by icy infusion in brains (0.015 mg/kg/day) for 28 days (8 animals per treatment group).
Thus, irreversible cathepsin B inhibitors are efficacious in this AD animal model, causing an 80% improvement in cognitive function and a 50% decrease in amyloid plaque load and brain Aβ. Thus, these tests indicate that Cathepsin B inhibitors are effective at reversing the cognitive deficit caused by AD
The status of memory impairment in the APPIn or APPswe/In mice with and without administration of select compounds was assessed by the Morris water maze test. The water maze test is widely used in mouse AD animal models to evaluate cognitive impairment in such AD models. Water maze tests were conducted as previously described (87-89).
Drug-treated and vehicle-treated mice were tested in the Morris water maze test. Mice were trained in a 1.2 meter open field water maze. The pool was filled to a depth of 30 cm with water and maintained at 25° C. The escape platform (10 cm square) was placed 1 cm below the surface of the water. During the trials, the platform was removed from the pool. […] These trials were not recorded since they were for training purposes only. […]

The conditions of data set [2]: healthy young males, cited from earlier work.
Data set [3] concerns transgenic APPIn mice (London mutant human APP). Put plainly: brain Aβ and amyloid plaque load in transgenic APPIn mice. The following applies: icv 0.015 mg/kg/day, 28 days; for reduction of amyloid plaque load: cortex. The format is in vivo, mouse. The procedure:
as §1
APPIn mice express the clinical mutant human APP (APP[V717I]) which has a mutation at the γ-secretase site that results in the overproduction of Aβ and the behavioral and neuropathology that develop an AD phenotype (8). These mice show early stage deficits in cognition and memory at 3-9 months age. At the later age of 8-12 months, amyloid plaques have developed in brains of these mice, with increased levels of Aβ40 and Aβ42 peptides in the brain. […] Thus, this AD mouse model allows testing of select reversible compounds to improve cognition and to reduce brain levels of Aβ peptides and amyloid plaques.
(§2) Direct icy infusion into the brain was the first route of administration to be tested to establish the effectiveness of reversible inhibitors in the brain to provide cognitive improvement, and reduction in brain Aβ peptides and amyloid plaques. Icy infusion was performed as described above for the irreversible inhibitors with use of the Alzet minipump. The initial dose utilized was the same dosage used for E64d and CA074Me in the APPIn mice or APPswe/In mice Administration of these compounds began at approximately 1-2 months of age and infusion was conducted for periods of 1, 2, 4, and 8 months (or other time periods). Administration of the select reversible compounds by direct icy infusion into mouse brains was conducted initially at 0.025 μl/hr of 1 mg/ml, other doses may be examined based on results with the first dose. Each time point was conducted with about 8-10 animals and 8-10 normal control animals (age-matched) (or greater number of mice per treatment group, if necessary, for appropriate statistical evaluation). At the end of each of these infusion periods, cognitive testing and assessment of Aβ peptide levels with plaque pathology was evaluated. At each of these time points, mice were tested for cognition, and then sacrificed for evaluation of Aβ and neuropathology in the brain
(§3) After behavioral testing was completed, the mice were sacrificed for analyses of Aβ40 and Aβ42 peptide levels, and neuropathology. One half brain (one hemisphere) was utilized to prepare brain extracts for measurement of Aβ40 and Aβ42 levels by ELISA assays, and the other half brain was used for neuropathological evaluation. Procedures for preparation of brain extracts and ELISA assays for Aβ peptides are those used for analyses of guinea pig brains
(§4) Aβ-related neuropathology was assessed in cortex and hippocampus of brains. The relative extent of Aβ immunoreactivity in neurons and glial cells was assessed. Immunostaining for Aβ was conducted as described previously (58) Aβ-related neuropathology was assessed in cortex and hippocampus of brains, as well as other regions of the brain as controls. Brain tissue was fixed in 4% paraformaldehyde overnight, and then processed to paraffin. Serial sections were obtained, deparaffinized and washed in TBS buffer. Each section was blocked with appropriate normal serum (mouse or rabbit), and subjected to primary anti-Aβ antibody for detection of amyloid deposits. Sections were then stained with DAB ([…]) with the Vector ABC Elite kit (Vector Laboratories). Amyloid areas were imaged with microscopic computer-assisted analysis system using the NIH Image Analysis Software.

The conditions of data set [4]: mice, rats and dogs; cited from earlier work.
In a further data set the test system is APPswe/In mice. Put plainly: amyloid load, Aβ, CTFβ and sAPPα in APPswe/In mice. The format is in vivo, mouse. Conditions: Mean + % SEM. The method, then:
Cathepsin B inhibitors were also evaluated in another transgenic mouse that expressed human APP containing both the Swedish mutant β-secretase and the London γ-secretase site (APPswe/In).
The mouse model of AD expressing human APP containing the Swe mutant β-secretase site and the London mutation (APPswe/In) also overproduce Aβ, and develop neuropathology and behavior that mimic AD. APPswe/In was generated by site-directed mutagenesis at the β-secretase site of the APPIn to convert Lys-Met to the mutant Asn-Leu. Both APPswe/In and APPIn mouse strains were created in a C57BL/6 mouse background using the Thy-1.2 expression cassette driven by the Thy-1 promoter containing an SV40 polyadenylation site. The APPswe/In mice differ from the APPIn in that APPswe/In mice contain the Swedish mutant β-secretase site rather than the wt β-secretase site found in APPIn.
as §2, §3, §4

In data set [5] the test system is primary neuronal chromaffin cells. The following applies: cited from earlier work.

`CCOC(=O)[C@H]1O[C@@H]1C(=O)N[C@@H](CC(C)C)C(=O)NCCC(C)C` [E64d]: the “average latency period (Morris water maze) vs control” value in data set [1] was “significantly lower average latency period”. For the same compound, in data set [2] (5 mg/kg/day oral), the “pulse, resting blood pressure, body temperature, grip force” value is reported as “No change” and the “subjective or objective symptoms, clinical tests” value is given as “no change in subjective or objective symptoms or clinical tests”. In addition, in data set [2] (oral), the absorption entry is given as “good absorption”, the accumulation result is listed as “no accumulation occurred” and the “total dose collected in urine” value is reported as “about 30%”. In addition, in data set [3], the “decrease in brain Aβ40” value came to 50%, the “decrease in brain Aβ42” value is listed as 50% and the “reduction of amyloid plaque load” value was “significantly reduce amyloid load”. Besides, the “therapeutic window / LD50” value in data set [4] was “excellent therapeutic window”. Besides, in the data set with APPswe/In mice, the Amyloid load is given as 1.06 + 4%, the Aβ40 is 92 + 7%, the Aβ42 was 101 + 3% and the CTFβ is 100 + 3%. Further, the sAPPα with APPswe/In mice is given as 98 + 3%.

Take `CCCNC(=O)[C@H]1O[C@@H]1C(=O)N[C@H](C(=O)N1CCC[C@H]1C(=O)OC)[C@@H](C)CC` [CA074Me]: the “average latency period (Morris water maze) vs control” value in data set [1] is on record as “significantly lower average latency period”. In data set [3], the “decrease in brain Aβ40” value is 50%, the “decrease in brain Aβ42” value came out at 50% and the “reduction of amyloid plaque load” value was “significantly reduce amyloid load”. Also, the “CTFβ production in primary chromaffin cell cultures” value in data set [5] is given as “reduced CTFβ production”. Further, in the data set on APPswe/In mice, the Amyloid load is 1.07 + 4%, the Aβ40 is given as 91 + 4%, the Aβ42 is 97 + 3% and the CTFβ is recorded as 97 + 3%. In the data set on APPswe/In mice, the sAPPα was 101 + 4%.

(Values after US20100216875A1, “METHODS OF TREATING ALZHEIMER'S DISEASE” (priority 2006, published 2010).)
